Source: PubChem BioAssay (NCI)
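Exposure lasted 48 hours, with cells grown in 96-well plates and compounds tested at five concentrations. The concentration for full growth arrest is given as TGI.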

Assays:
Experiment in all cases: growth of human tumour cells (NCI), 48 h
[1] = system: SW-620 colon
[2] = system: UACC-257 melanoma
[3] = system: HL-60(TB) leukemia
[4] = system: K-562 leukemia
[5] = system: SR leukemia
[6] = system: MOLT-4 leukemia
[7] = system: OVCAR-5 ovarian
[8] = system: HCT-116 colon
[9] = system: COLO 205 colon
[10] = system: MALME-3M melanoma
[11] = system: 786-0 renal
[12] = system: T-47D breast
[13] = system: SNB-19 CNS
[14] = system: SK-OV-3 ovarian
[15] = system: UACC-62 melanoma
[16] = system: HOP-92 NSCLC

SMILES	TGI [1]	TGI [2]	TGI [3]	TGI [4]	TGI [5]	TGI [6]	TGI [7]	TGI [8]	TGI [9]	TGI [10]	TGI [11]	TGI [12]	TGI [13]	TGI [14]	TGI [15]	TGI [16]
Cc1ccc(N(C(=O)Nc2ccc(F)c(Cl)c2)C2=NCC(C)S2)cc1 (stereo not given)	> 100 µM	> 100 µM	73.2 µM	> 100 µM	> 100 µM	> 100 µM	> 100 µM	> 100 µM	> 100 µM	> 100 µM	> 100 µM	> 100 µM	> 100 µM	> 100 µM		
O=C1CCCC1C(O)(C(F)(F)F)C(F)(F)F (stereo not given)	> 100 µM	> 100 µM	> 100 µM	> 100 µM	> 100 µM	> 100 µM	> 100 µM	> 100 µM	> 100 µM	> 100 µM	> 100 µM	> 100 µM	> 100 µM		> 100 µM	> 100 µM
CC1(C)C/C(=N/O)c2c(nc3ccc4ccccc4c3c2-c2ccc(Cl)cc2)C1	77.9 µM	91.2 µM	26.1 µM	65.6 µM	21 µM	52.6 µM	> 100 µM	24.1 µM	72.8 µM		15.2 µM	34.2 µM	> 100 µM	34.7 µM	37.1 µM	42.2 µM
CC1=C(C(=O)N(C(C)C)C(C)C)CC(C(=O)N(C(C)C)C(C)C)=C(C)N1	> 100 µM	> 100 µM	> 100 µM	> 100 µM		> 100 µM	> 100 µM	> 100 µM	> 100 µM		> 100 µM	> 100 µM	> 100 µM	> 100 µM	> 100 µM	> 100 µM
CN1C(=O)C(c2c[nH]c3ccccc23)N(C)C(=O)C1c1c[nH]c2ccccc12 (stereo not given)	> 100 µM	> 100 µM	> 100 µM	> 100 µM		> 100 µM	> 100 µM	> 100 µM	> 100 µM	> 100 µM	> 100 µM	> 100 µM		> 100 µM	> 100 µM	> 100 µM
Cc1cc2nc(N3C(=O)/C(=C/c4ccccc4S)N=C3c3ccccc3)sc2cc1C	> 100 µM	> 100 µM	82 µM	> 100 µM	> 100 µM	> 100 µM	> 100 µM	61.3 µM	98.5 µM		60.5 µM	> 100 µM	> 100 µM	> 100 µM	> 100 µM	82.8 µM
CC(C)(C)c1ccc(-n2c3nc(=O)n(-c4ccccc4CO)c(=O)c-3cc3ccccc32)cc1	> 100 µM	> 100 µM	56.1 µM	> 100 µM	73 µM	57.2 µM	> 100 µM	> 100 µM	> 100 µM	> 100 µM	> 100 µM	> 100 µM	> 100 µM		> 100 µM	97.7 µM
COC(=O)C1(C(=O)OC)Cc2ccc(C)cc2C2=C1C(=O)c1ccccc1C2=O	45.8 µM	31.2 µM	> 100 µM	46.5 µM	> 100 µM	31.7 µM	35.5 µM	40.3 µM		87.5 µM	68.9 µM	29.9 µM	> 100 µM		35.8 µM	38.7 µM
O=c1n(-c2ccccc2)c(=O)n2n1C1Cc3ccccc3C12 (stereo not given)	> 100 µM	> 100 µM	> 100 µM	> 100 µM	> 100 µM	> 100 µM	> 100 µM	> 100 µM	> 100 µM		> 100 µM	> 100 µM	> 100 µM	> 100 µM	> 100 µM	> 100 µM
COc1cc(/C=C2\C(=O)N(c3ccccc3Cl)C(c3ccccc3)S2(=O)=O)cc(OC)c1OC (stereo not given)	> 100 µM	> 100 µM	> 100 µM	94.9 µM		36.4 µM	> 100 µM	> 100 µM	> 100 µM	89.3 µM	> 100 µM	> 100 µM	> 100 µM	> 100 µM	> 100 µM	> 100 µM
Cc1ccc(C2SC(N)=Nc3c2c(C)nn3C(=O)c2ccccc2O)cc1 (stereo not given)	> 10 µM	> 10 µM		> 10 µM	> 10 µM	> 10 µM	> 10 µM	> 10 µM	> 10 µM	> 10 µM	> 10 µM	> 10 µM	> 10 µM	> 10 µM	4.27 µM	5.02 µM
S=C1CSc2c(ccc3ccccc23)N1		> 100 µM	> 100 µM	> 100 µM	> 100 µM	> 100 µM	> 100 µM	> 100 µM	> 100 µM	> 100 µM	> 100 µM	> 100 µM	> 100 µM	> 100 µM	> 100 µM	
Nc1ccc(CCSSCCc2ccc(N)cc2)cc1	> 76.8 µM	51.7 µM		> 62.3 µM	31.6 µM	14.7 µM	83.5 µM	31.9 µM	> 100 µM	41.6 µM	36.6 µM	> 92.3 µM	> 100 µM	> 100 µM	89.1 µM	> 100 µM
COC(=O)C(Cc1ccc(Oc2cc(CC(NC(=O)c3ccccc3)C(=O)OC)ccc2OC)cc1)NC(=O)c1ccccc1 (stereo not given)	> 100 µM	23.8 µM	> 57.3 µM	> 100 µM		> 100 µM	> 100 µM	> 100 µM	> 73.2 µM	29.8 µM	30 µM	> 51.4 µM	> 100 µM	> 100 µM	42.7 µM	> 65.1 µM
Cc1ccc(C2=C(C#N)C(=O)N3CCN=C3S2)cc1	> 100 µM	> 100 µM		> 100 µM	> 100 µM	> 100 µM	> 100 µM	> 100 µM	> 100 µM	> 100 µM	> 100 µM	> 100 µM	> 100 µM	> 100 µM	> 100 µM	> 100 µM
